Columns and labels:
[1] = in vitro; conditions: human, Caco-2
[2] = Liver microsomes stability with NADPH; format: in vitro ADME; conditions: human; for CLint scaled at 1 μM / microsomal CLint at 1 μM: liver microsomes, pH 7.4; for CLint scaled at 1 μM: read-out: Microsomes Cl int,scaled; for Microsomes scaled Cl hep: well-stirred model; for Microsomes Cl u, int,app: Cl int,app / f u,mic; for microsomal CLint at 1 μM: NADPH, read-out: Microsomes Cl int,app
[3] = Stability in plasma, microsomes without cofactors and deactivated hepatocytes; format: in vitro ADME; conditions: ICR/CD-1, mouse and human; all species, 37 °C, more than 4 hours; read-out: half-life elimination (t 1/2) in plasma, microsomes and deactivated hepatocytes
Method: page 4: Supplemental Methods Blood-to-plasma ratio […] and incubated for an hour at 37 OC. At the end of the incubation period, plasma (CP) is separated from […] folds acetonitrile (ACN) containing berberine chloride as internal standard (IS) by LC-MS/MS (Analytical method seen below). The blood cell partitioning was calculated as follows. (1) Plasma, liver microsomes and hepatocyte binding by RED device The stability of the compounds in plasma, liver microsomes and hepatocyte were studied to ensure the reliability of the binding data. Hepatocyte was deactivated by leaving them on a bench for 2 days and going through a freeze thaw cycle thereafter. […] were inactivated. All validation compounds were incubated at 37 °C over 4 h, and in triplicate. For […] […] Natural logarithm of peak area ratios (compound peak area normalized by IS peak area) were plotted against time and half-life calculated. […] Aliquots (100 µL) were removed from each side of the insert, and analyzed after protein precipitation using 4 folds acetonitrile (ACN) containing berberine chloride as internal standard (IS) by LC-MS/MS (Analytical me thod seen below). […] In vitro stability in liver microsomes and hepatocytes Half-life (t1/2) of SLM or SLOH in liver microsomes was determined in duplicate. […]

[4] = system: AD model mice; parameters: method as in PMID 28032988; conditions: cited from earlier work
[5] = system: mouse hepatocytes; assay: Hepatocyte stability; format: in vitro ADME; conditions: well-stirred model
[6] = system: human hepatocytes; assay: Hepatocyte stability; format: in vitro ADME; conditions: well-stirred model
Method: MS/MS. Natural logarithm of peak area ratios (compound peak area normalized by IS peak area) were plotted against time and half-life calculated. […]
placed into the sample chamber (indicated by the red ring) with 400 µL of PBS into the adjacent chamber.
The plate was sealed with a self-adhesive lid and incubated at 37 °C on an orbital shaker (1.5 g approx.) for 4 h. Aliquots (100 µL) were removed from each side of the insert, and analyzed after protein precipitation using 4 folds acetonitrile (ACN) containing berberine chloride as internal standard (IS) by LC-MS/MS (Analytical me thod seen below). The experimental procedure outlined in the Thermo Scientific RED device systems brochure was adopted in the present study . The several positive controls […]
In vitro stability in liver microsomes and hepatocytes
Half-life (t1/2) of SLM or SLOH in liver microsomes was determined in duplicate. In phase I reaction, […]
buffer (pH 7.4) including 81 mM Na2HPO4 and 19 mM NaH2PO4 ) at 37 °C, the reaction mixture was prewarmed at 37 °C for 2 minutes before adding NADPH (1.0 mM). In phase II reaction, the compound […]
5 mM MgCl2, 10 μg/mL alamethicin, and 2% (w/v) BSA. […]
reactions were initiated with the addition of UDPGA (5.0 mM). […]

Papp A→B at 1 μM [1] [×10⁻⁶ cm/s]	efflux ratio at 1 μM [1]	CLint scaled at 1 μM [2] [mL/min/kg]	Microsomes scaled Cl hep [2] [L/h/kg]	Microsomes Cl u, int,app [2]	microsomal CLint at 1 μM [2] [µL/min/mg]	half-life [3] [min]	Hepatocyte scaled Cl hep [5] [L/h/kg]	Hepatocyte scaled Cl hep [6] [L/h/kg]	SMILES	effect on pathological symptom and memory deterioration [4]
2.7	9	82 ± 13	0.120 ± 0.0200	1.00 ± 0.160^$ mL/min/mg	70 ± 10	> 1440	0.580 ± 0.100	0.0600 ± 0.0100	COCCOCCn1c2ccccc2c2cc(/C=C/c3cc[n+](CCO)c4ccccc34)ccc21 [SLOH, (E)-1-(2-hydroxyethyl)-4-(2-(9-(2-(2-metho-xyethoxy)-ethyl)-9H-carbazol-3-yl)vinyl) quinolin-1-ium chloride]	alleviate the pathological symptom and memory deterioration
2.5	34	140 ± 19	0.100 ± 0.0100	1.50 ± 0.200^$ mL/min/mg	110 ± 20	> 1440	0.520 ± 0.100	0.0500 ± 0.0100	COCCOCCn1c2ccccc2c2cc(/C=C/c3cc[n+](C)c4ccccc34)ccc21.[I-] [SLM, (E)-4-(2-(9-(2-(2-methoxyethoxy)ethyl)-9H-carbazol-3-yl)-vinyl)-1-methyl-quinolin-1-iumiodide]	alleviate the pathological symptom and memory deterioration
